Reference: patent publication US20240216465A1, “METHOD FOR TREATING REFRACTORY BRAIN TUMOR” (National Yang Ming Chiao Tung University, priority 2023, published 2024)
Where a SMILES comes first, the peptide text is derived from it. The star is where a group is joined. Cbz = O=C(OCc1ccccc1)*

Assays:
Slug = assay: Western blot of Slug in GBM cells; type: cell-based, human; details: MG132 10 μM 30 mins pretreatment, then GMI 0.6 μM 3 h
Method: FIGS. 10A-10D show GMI induces Slug degradation in GBM cells. […] The mRNA level of Slug was measured using qPCR.
Cell extracts (30 μg) were then subjected to one-dimensional SDS-PAGE (8-12% separating gel) electrophoresis and were transferred to a PVDF membrane (0.22 μm, Millipore) by using a transfer apparatus (Bio-Rad, Richmond, CA). Membranes were blocked with 5% BSA in TBST buffer containing 0.05% Tween20. The expressions of proteins were identified by indicated antibodies. The expression of tubulin as an internal control. The indicated bands on the PVDF membrane were quantified using densitometry analysis by ImageJ software (National Institute of Mental Health, Bethesda, MD) and compared to results of the control group.

[1] = Rat weight and serum AST, ALT, BUN, creatinine in C6-bearing rats; type: in vivo; details: rat sera, TMZ 30 mg/kg ip
Method: FIGS. 7A-7F show GMI combined with TMZ suppressed tumorigenesis in C6-bearing rats. FIG. 7A indicates Schematic design of the in vivo post combined therapy of GMI and TMZ in C6-bearing rats. The tumor volume in rat received GMI (0.6 mg/kg) and […]. […] FIG. 7C indicates the tumor volume was measured; each bar represents the mean+SD. […] FIGS. 7E and 7F show the AST and ALT (hepatic function: shown in FIG. 7E) as well as BUN and creatinine (renal function; shown in FIG. 7F) of rat sera were analyzed.
Five days after tumor implantation surgery, rats were randomly assigned into four group (6 animals/group) to be treated with different drugs every other day for 4 times, i.e. on day 5, 7, 9, 11. • Group 1 (control): intravenous administration of saline. • Group 2 (GMI): intravenous (iv) administration of GMI (0.6 mg/Kg) • Group 3 (TMZ): intraperitoneal (ip) administration of TMZ (30 mg/Kg) • Group 4 (GMI+TMZ): combination of GMI (iv, 0.6 mg/Kg) and TMZ (ip, 30 mg/Kg)
MRI imaging acquisition was performed on day 13 and a half of the animals in each group were sacrificed on day 15 for immunohistochemistry study. After tumor volume was measured, specimens from the animals in the histology group were subjected to other histological evaluations described as follows.

SMILES: CC(C)C[C@@H](C=O)NC(=O)[C@H](CC(C)C)NC(=O)[C@H](CC(C)C)NC(=O)OCc1ccccc1 [MG132] (Cbz-Leu-Leu-Leu-aldehyde)
- GMI-induced Slug degradation (Slug): counteracted GMI-induced Slug degradation

SMILES: Cn1nnc2c(C(N)=O)ncn2c1=O [TMZ, Temozolomide]
- AST/ALT ([1]; GMI 0.6 mg/kg iv): increased AST/ALT expression
- BUN [1]: slightly increased BUN expression
